Source: patent US20040024024A1, “Aromatic sulfone hydroxamates and their use as protease inhibitors” (priority 2001, published 2004)

Experiments:
Type in all cases: biochemical
Human recombinant MMP-1 = target: T1, Human recombinant MMP-1 (Homo sapiens, UniProt P03956); assay: In vitro MMP inhibition, Ki determination (fluorogenic substrate II)
T1 construct: made in house; host or cells: MMP-1-transfected HT-1080 cells (spent media)
T1 sequence (P03956 100-469): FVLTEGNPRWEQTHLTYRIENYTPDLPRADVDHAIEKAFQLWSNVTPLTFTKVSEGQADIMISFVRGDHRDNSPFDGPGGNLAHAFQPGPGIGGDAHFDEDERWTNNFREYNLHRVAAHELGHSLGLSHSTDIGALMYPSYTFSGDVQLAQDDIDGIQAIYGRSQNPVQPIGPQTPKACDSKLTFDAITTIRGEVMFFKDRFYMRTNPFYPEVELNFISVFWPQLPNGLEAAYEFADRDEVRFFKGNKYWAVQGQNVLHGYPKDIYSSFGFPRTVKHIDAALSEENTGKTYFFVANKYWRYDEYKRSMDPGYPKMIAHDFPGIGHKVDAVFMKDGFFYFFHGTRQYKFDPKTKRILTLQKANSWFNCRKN
Description: (§1) Several hydroxamates and salts thereof were analyzed in in vitro assays to determine their ability to inhibit the MMP cleavage of peptide substrates. Inhibition (Ki) and IC50 constants were calculated from the assayed hydroxamate-MMP interactions.
(§2) Human recombinant MMP-1, MMP-2, MMP-9, MMP-13, and MMP-14 were used in this assay. All enzymes were prepared in Assignee's laboratories following usual laboratory procedures. Protocols for the preparation and use of these enzymes are available in the scientific literature. See, e.g., Enzyme Nomenclature (Academic Press, San Diego, Calif., 1992) (and the citations therein). See also, Frije et al., J. Biol. Chem., 26(24), 16766-73 (1994).
The MMP-1 proenzyme was purified from the spent media of MMP-1-transfected HT-1080 cells provided by Dr. Harold Welgus of Washington University (St. Louis, Mo.). The protein was purified on a zinc chelating column.
(§3) All MMPs were activated using 4-aminophenylmercuric acetate (“APMA”, Sigma Chemical, St. Louis, Mo.) or trypsin. MMP-9 also was activated using human recombinant MMP-3 (purified in Assignee's laboratory following standard cloning and purification techniques).
(§4) Two fluorogenic, methoxycoumarin-containing polypeptide substrates were used in the MMP inhibition assays:
(§5) MCA-ArgProLeuGlyLeuDpaAlaArgGluArgNH2 (II)
(§6) Here, “Dpa” is 3-(2,4-dinitrophenyl)-L-2,3-diaminopropionyl group, and “MCA” is 7-methoxycoumarin-4-yl acetyl. Substrate (I) was purchased from Baychem (Redwood City, Calif.), and substrate II was prepared Assignee's laboratory. Substrate I was used in the IC50 determination assays, while substrate II was used in the Ki determination assays. In the absence of MMP inhibitory activity, either substrate is cleaved at the Gly-Leu peptide bond. This cleavage separates the highly fluorogenic peptide from the 2,4-dinitrophenyl quencher, thus resulting in increase of fluorescent intensity.
(§7) The stock solutions of the assayed hydroxamates (or salts thereof) were prepared in 1% dimethyl sulfoxide (DMSO). These stock solutions were diluted in Buffer A (100 mM Tris-HCl, 100 mM NaCl, 10 mM CaCl2, 0.05% polyoxyethylene 23 lauryl ether, pH 7.5) to obtain solutions with different hydroxamate concentrations, i.e., assay solutions with different concentrations of the assayed MMP inhibitory compound. The experiment controls contained the same amount of Buffer A/DMSO as the assayed sample, but contained no hydroxamate (or salt thereof).
(§8) The assays from which the Ki determinations were made were performed as follows. The assayed hydroxamate samples were incubated in separate wells of untreated white polystyrene plates (Nunc Nalgene International, Rochester, N.Y.), and analyzed on a Tecan SpectraFlour Plus plate reader. The excitation wavelength was 330 nm, and the emission wavelength—420 nm. All samples (assayed hydroxamates and controls) were incubated in separate plate wells at room temperature for 1 hr in the presence of 4 μM of MMP substrate (II). In the absence of MMP inhibitory activity, substrate II was cleaved at the Gly-Leu bond resulting in an increase of relative fluorescence. Inhibition was observed as a reduced rate of this increase in relative fluorescence. The various hydroxamates were analyzed using a single low enzyme concentration with a single substrate concentration fixed at or below the Km. This protocol is a modification of method by Knight et al., FEBS Lett., 296(3), 263-266 (1992). Apparent inhibitory constants were determined by non-linear regression of reaction velocity as a function of inhibitor and enzyme concentration using Morrison's equation, as described by Kuzmic, Anal. Biochem. 286, 45-50 (2000). Modifications were made in the non-linear regression method to allow a common control reaction rate and effective enzyme concentration to be shared between all dose-response relationships on a given assay plate. […]

Human recombinant MMP-9 = target: T2, Human recombinant MMP-9 (Homo sapiens, UniProt P14780); assay: as above
T2 construct: made in house; host or cells: MMP-9-transfected HT1080 cells (spent media)
T2 sequence (P14780 107-707 limits assumed): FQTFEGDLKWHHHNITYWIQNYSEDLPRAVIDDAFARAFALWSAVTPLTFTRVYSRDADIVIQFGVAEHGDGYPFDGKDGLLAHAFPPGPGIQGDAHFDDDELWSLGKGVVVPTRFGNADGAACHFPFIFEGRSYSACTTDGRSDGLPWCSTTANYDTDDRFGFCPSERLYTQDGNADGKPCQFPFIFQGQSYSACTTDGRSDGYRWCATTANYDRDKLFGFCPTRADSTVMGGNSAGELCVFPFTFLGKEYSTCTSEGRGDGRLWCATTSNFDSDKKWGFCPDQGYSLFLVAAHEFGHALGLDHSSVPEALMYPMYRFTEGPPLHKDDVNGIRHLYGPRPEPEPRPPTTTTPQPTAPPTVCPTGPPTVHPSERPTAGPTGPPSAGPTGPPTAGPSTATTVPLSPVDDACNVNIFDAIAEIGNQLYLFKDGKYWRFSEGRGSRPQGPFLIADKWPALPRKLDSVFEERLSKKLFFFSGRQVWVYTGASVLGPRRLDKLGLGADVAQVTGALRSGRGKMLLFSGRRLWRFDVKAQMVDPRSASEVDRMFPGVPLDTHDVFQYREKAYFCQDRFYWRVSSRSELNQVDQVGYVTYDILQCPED
Description: as §1, §2
The MMP-9 proenzyme was purified by gelatin Sepharose chromatography from spent media of MMP-9-transfected HT1080 cells provided by Dr. Howard Welgus of Washington University (St. Louis, Mo.).
as §3, §4, §5, §6, §7, §8

Human recombinant MMP-13 = target: T3, Human recombinant MMP-13 (Homo sapiens, UniProt P45452); assay: In vitro MMP inhibition, IC50 determination (fluorogenic substrate I)
T3 construct: made in house; host or cells: baculovirus / insect cells
Procedure, shortened: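 Fluorescence at 415 nm (excitation 328 nm) reports Gly-Leu cleavage of 4 μM quenched methoxycoumarin peptide substrate I. Human recombinant MMP-13, activated by trypsin or APMA, was incubated at room temperature with varied inhibitor concentrations in pH 7.5 Tris/NaCl/CaCl2 buffer; IC50 derived from reduced fluorescence.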

[1] = substrate (II) 4 μM, 1 hr room temperature, apparent Ki, values in parenthesis
[2] = substrate (I) 4 μM, room temperature, values not in parenthesis

Compound | Ki (Human recombinant MMP-1; value in parenthesis) [nM] | Ki (Human recombinant MMP-9; value in parenthesis) [nM] | IC50 (Human recombinant MMP-13; value outside parenthesis) [nM] | Ki (Human recombinant MMP-9; value in parentheses) [nM] | IC50 (Human recombinant MMP-13; value outside parentheses) [nM] | further results
O=C(NO)C1(S(=O)(=O)c2ccc(OCCOc3cccc(-c4ccccc4)c3)cc2)CCOCC1 [Example 157] | > 10000 | 1390 | 3.5 | – | – | –
Cc1cc(NC(=O)CCCOc2ccc(S(=O)(=O)C3(C(=O)NO)CCOCC3)cc2)ccc1OC(C)C [Example 290] | > 10000 | > 10000 | 1.1 | – | – | –
O=C(NO)C1(S(=O)(=O)c2ccc(OCCCc3cccc(-c4ccncc4)c3)cc2)CCOCC1 [Example 149] | > 10000 | 94.5 | 1.3 | – | – | –
O=C(NO)C1(S(=O)(=O)c2ccc(OCCCc3cccc(Br)c3)cc2)CCOCC1 [Example 154] | > 10000 | 151 | 0.8 | – | – | –
O=C(NO)C1(S(=O)(=O)c2ccc(OCCCc3cccc(-c4ccoc4)c3)cc2)CCOCC1 [Example 637] | – | – | – | 881 | 1.8 | Ki (Human recombinant MMP-1; value in parentheses): > 10000 nM
O=C(NO)C1(S(=O)(=O)c2ccc(OCCCc3cccc(-c4ccccc4O)c3)cc2)CCOCC1 [Example 636] | – | – | – | 763 | 3.2 | Ki (Human recombinant MMP-1; value in parentheses): > 10000 nM
COCCN1CCC(C(=O)NO)(S(=O)(=O)c2ccc(OCCCc3nc(-c4ccc(OC(F)(F)F)cc4)no3)cc2)CC1 [Example 42] | – | – | – | – | – | Ki (Human recombinant MMP-1; [1]): > 10000 nM; Ki (Human recombinant MMP-9; [1]): 662 nM; IC50 (Human recombinant MMP-13; [2]): 0.3 nM
O=C(NO)C1(S(=O)(=O)c2ccc(OCCCc3cccc(-c4ccc(F)cc4)c3)cc2)CCOCC1 [Example 39] | – | – | – | – | – | Ki (Human recombinant MMP-1; [1]): > 10000 nM; Ki (Human recombinant MMP-9; [1]): 2360 nM; IC50 (Human recombinant MMP-13; [2]): 0.9 nM
O=C(NO)C1(S(=O)(=O)c2ccc(OCCCc3cccc(-c4cccs4)c3)cc2)CCOCC1 [Example 595] | – | – | – | 2060 | 1 | –
COCCN1CCC(C(=O)NO)(S(=O)(=O)c2ccc(OCCCn3nnc(-c4ccc(OC(F)(F)F)cc4)n3)cc2)CC1 [Example 48] | – | – | – | – | – | Ki (Human recombinant MMP-9; [1]): 159 nM; IC50 (Human recombinant MMP-13; [2]): 0.2 nM

Second part, led by results:

Ki (Human recombinant MMP-1; value in parenthesis) [nM] | Ki (Human recombinant MMP-9; value in parenthesis) [nM] | IC50 (Human recombinant MMP-13; value outside parenthesis) [nM] | Ki (Human recombinant MMP-9; value in parentheses) [nM] | IC50 (Human recombinant MMP-13; value outside parentheses) [nM] | Compound | further results
> 10000 | 1490 | 5.09 | – | – | CN(C(=O)CCCOc1ccc(S(=O)(=O)C2(C(=O)NO)CCOCC2)cc1)c1ccc(OC(F)(F)F)cc1 [Example 249] | –
– | – | – | 739 | 0.2 | O=C(NO)C1(S(=O)(=O)c2ccc(OCCCc3cncc(-c4ccccc4)c3)cc2)CCOCC1 [Example 524] | –
– | – | – | 8180 | 0.1 | O=C(NO)C1(S(=O)(=O)c2ccc(OCCCc3cc(-c4ccc(F)cc4F)cs3)cc2)CCOCC1 [Example 587] | Ki (Human recombinant MMP-1; value in parentheses): > 10000 nM
– | – | – | 6.15 | 0.2 | O=C(CCCOc1ccc(S(=O)(=O)C2(C(=O)NO)CCOCC2)cc1)Nc1cccc(I)c1 [Example 570] | Ki (Human recombinant MMP-1; value in parentheses): 3060 nM
– | – | – | 1930 | 3.3 | O=C(NO)C1(S(=O)(=O)c2ccc(OCCCc3cccc(-c4ccc5c(c4)OCO5)c3)cc2)CCOCC1 [Example 628] | Ki (Human recombinant MMP-1; value in parentheses): > 10000 nM
> 10000 | 4230 | 5.5 | – | – | Cc1ccc(-c2cccc(CCOc3ccc(S(=O)(=O)C4(C(=O)NO)CCOCC4)cc3)c2)cc1 [Example 127] | –
6540 | 85.4 | 0.5 | – | – | CC(C)c1cccc(NC(=O)CCCOc2ccc(S(=O)(=O)C3(C(=O)NO)CCOCC3)cc2)c1 [Example 182] | –
